Entries after “also recorded” stand apart in the source; their conditions may differ. Where a name gives a salt, the structure may show the parent alone. Read-outs that look alike come from different tables or passages of the source.
Key:
TGFβ-3 promoter [1] = assay: Dose response of TGFβ-3 promoter (pB-301) CAT induction in MG63 cells with pRSVER; settings: for CAT activity: 24 h, vehicle 0.85
Experimental: For each group of twelve cultures, the particular estrogen or antiestrogen compound was tested in replicate cultures at […], varying in tenfold increments from 10^-9 M to 10^-5 M, as well as one set of replicate cultures treated with vehicle only (for a total of twelve cultures per experimental treatment). Hormones were dissolved in ethanol and applied to the cultures in media as described above. The four estrogens and antiestrogens tested were:
a. 17β-estradiol (Sigma Chemical Corp., St. Louis, Mo.);

TGFβ-3 promoter [2] = assay: Comparative induction of reporter gene from TGFβ-3 promoter (pB-301, pRSVER, MG63) by raloxifene and related compounds; assay type: cell-based, human; settings: for reporter gene expression: 0 M 0.61; for induction of reporter gene expression (in words): MG63 cells
uterotropic activity = settings: ovariectomized rats; cited from earlier work
[3] = system: estrogen responsive elements; settings: in vitro; cited from earlier work
[4] = system: osteoblast enriched bone cell cultures; settings: relative to TGFβ-1; cited from earlier work
[5] = system: human endometrial cancer cell line (Ishikawa); settings: cited from earlier work
[6] = system: human endometrial cancer cell line (HEC-50); settings: cited from earlier work
[7] = system: osteoblasts and osteoclasts; settings: cited from earlier work
[8] = system: mesenchymal cells and epithelial cells; fibroblasts, macrophages and smooth muscle cells; settings: cited from earlier work
[9] = system: TGFβ secretion by human fetal fibroblasts; settings: absence of estrogen receptor; cited from earlier work
TGFβ-1 = settings: three months of treatment; cited from earlier work
TGFβ-2 mRNA = settings: T-47D and MDA-MB-231; cited from earlier work
[10] = cited from earlier work; for bone density (in words): breast cancer patients
TGFβ-1 promoter = assay: CAT reporter expression, TGFβ-1 promoter (phTG12), MG63 cells cotransfected with pRSVER
Experimental: (§1) Co-transfection experiments were performed in MG63 (human osteosarcoma) cells, using the ProFection Mammalian Transfection System (Promega). […] The cells were then refed with fresh 3:1 media containing 10% csFBS. Compounds to be evaluated for their ability to modulate reporter gene expression were added at the appropriate times and assayed as described below.
(§2) Cultures of MG63 cells were transiently co-transfected with pRSVER plasmid and either phTG12, pTGF-1, or pB2-499 using the ProFection system (Promega). For each transfected cell culture, DNA-containing calcium phosphate precipitates were added dropwise to each culture dish and mixed thoroughly in the media. The pH of the media was carefully maintained between pH 7.2 and pH 7.4. Transfected cell cultures were then incubated overnight in a 5% CO2 atmosphere at 37° C. For all cultures, the precipitate was removed after overnight incubation by aspirating the media from the culture dishes, followed by rinsing each dish twice with D-PBS. For each cotransfected cell line, the buffer was replaced with 10 ml fresh medium containing 10% csFBS and one of the following compositions:
(§3) a. 10 μl ethanol (hormone vehicle)=control;
(§4) b. 10 μl 17β-estradiol (Sigma) ("estradiol") at a concentration of 10^-4 M in ethanol;
(§5) d. 10 μl Tamoxifen (Sigma) at a concentration of 10^-4 M in ethanol.
(§6) After 24 h incubation with these hormonal preparations (or the vehicle control), cells were washed twice with D-PBS. The cells were then scraped from the culture dishes using a rubber policeman and 1 ml of D-PBS. Cells were collected by centrifugation at 8,000 rpm for 2 minutes in a tabletop centrifuge (MicroMax Model, IEC, Newark, N.Y.). The supernatant was removed and the cell pellets were resuspended in 150 μL of a 0.25M Tris-HCl solution (pH 7.8). Cells were lysed by three cycles of freezing in a dry ice/ethanol bath and thawing in a water bath at 37° C. water bath (for 3 minutes each cycle). Lysed cell preparations were centrifuged at 15,000 rpm for 5 minutes at 4° C. to remove cell debris. Supernatants containing the soluble cell lysate were transferred to a new set of tubes for assaying chloramphenicol acetyltransferase (CAT) activity.
Before performing CAT assays on such cell lysates, the protein content of each lysate was first determined using a commercially-available assay (BioRad Laboratories, Richmond, Calif.). An amount of each cell lysate containing 100 μg total protein was then mixed with CAT assay buffer (0.4M Tris-HCl (pH 7.8)/ 0.5 mM acetyl-CoA (Boehringer Mannheim)/ 0.1 μCi D-threo-(dichloroacetyl-1,2-[^14 C]-chloramphenicol) for 15 hours. After this incubation, reactions were stopped by vigorously extracting the reaction mixture with 900 μL ethyl acetate. The organic and aqueous phases were separated by brief centrifugation at 14,000 rpm for 1 minute, and approximately 800 μL of the organic phase was transferred to a new set of tubes. Ethyl acetate was evaporated to concentrate the CAT-catalyzed reaction products.
Acetylated and unacetylated chloramphenicol species were resolved by thin layer chromatography using a mixture of 95:5 (v/v) chloroform:methanol as the ascending buffer.

TGFβ-2 promoter = assay: CAT reporter expression, TGFβ-2 promoter (pTGF-1), MG63 cells cotransfected with pRSVER
Experimental: as §1, §2, §3, §4, §5, §6
(§7) Before performing CAT assays on such cell lysates, the protein content of each lysate was first determined using a commercially-available assay (BioRad Laboratories, Richmond, Calif.). […]

TGFβ-3 promoter [11] = assay: CAT reporter expression, TGFβ-3 promoter (pB-499), MG63 cells cotransfected with pRSVER
Experimental: as §1, §2, §3, §4, §5, §6, §7

[12] = Homo sapiens, MG-63, 24 h, read-out: Fold Ind.

## O=C(c1ccc(OCCN2CCCCC2)cc1)c1c(-c2ccc(O)cc2)sc2cc(O)ccc12 [raloxifene]
TGFβ-3 promoter [1]; MG63 cells
  ED50 (in words): nanomolar concentrations

## p-hydroxyphenyl3-(-hydroxyphenyl)benzo[B]thien-2-yl ketone [LY98005]
TGFβ-3 promoter [2]; 10^-5 M
  reporter gene expression: 0.5
TGFβ-3 promoter [2]; 10^-6 M
  reporter gene expression: 0.4
TGFβ-3 promoter [2]; 10^-7 M
  reporter gene expression: 0.5
TGFβ-3 promoter [2]; 10^-8 M
  reporter gene expression: 0.5
TGFβ-3 promoter [2]; 10^-9 M
  reporter gene expression: 0.4
TGFβ-3 promoter [2]
  induction of reporter gene expression (in words): no induction
Uterotropic activity
  in vivo uterotropic activity (in words): inert in vivo

## CC(C)(C)C(=O)Oc1ccc(-c2sc3cc(OC(=O)C(C)(C)C)ccc3c2C(=O)c2ccc(OCCN3CCCCC3)cc2)cc1 [LY177366, [6-(2,2-dimethyl-1-oxopropoxy)-2-[4-(2,2-dimethyl-1-oxopropoxy)phenyl]benzo[B]thien-3-yl][4-[2-1-piperidinyl)ethoxy]phenyl]methanone hydrochloride]
TGFβ-3 promoter [2]; 10^-5 M
  reporter gene expression: 6.1
TGFβ-3 promoter [2]; 10^-6 M
  reporter gene expression: 7.9
TGFβ-3 promoter [2]; 10^-7 M
  reporter gene expression: 10.2
TGFβ-3 promoter [2]; 10^-8 M
  reporter gene expression: 7.9
TGFβ-3 promoter [2]; 10^-9 M
  reporter gene expression: 1.1
TGFβ-3 promoter [2]
  induction of reporter gene expression (in words): most potent inducer
Uterotropic activity
  in vivo uterotropic activity (in words): anti-uterotropic

## CC/C(=C(\c1ccc(O)cc1)c1ccc(OCCN(C)C)cc1)c1ccccc1 [hydroxytamixofen]
[3]
  binding of estrogen receptor complex to estrogen responsive elements (in words): bind in vitro to DNA binding domains called estrogen responsive elements

## O=C(c1ccc(O)cc1)c1sc2ccc(O)cc2c1-c1ccccc1 [LY112676, (p-hydroxyphenyl) 5-hydroxy-3-phenylbenzo[B]thien-2-yl ketone]
TGFβ-3 promoter [2]; 10^-5 M
  reporter gene expression: 3.8
TGFβ-3 promoter [2]; 10^-6 M
  reporter gene expression: 1.7
TGFβ-3 promoter [2]; 10^-7 M
  reporter gene expression: 0.5
TGFβ-3 promoter [2]; 10^-8 M
  reporter gene expression: 0.6
TGFβ-3 promoter [2]; 10^-9 M
  reporter gene expression: 0.6
Uterotropic activity
  in vivo uterotropic activity (in words): uterotropic

## TGFβ-3: isoform of transforming growth factor β
[4]
  mitogenesis, collagen synthesis and alkaline phosphatase activity (in words): three to five fold higher rate than TGFβ-1

## CCCCN(C)C(=O)CCCCCCCCCC[C@@H]1Cc2cc(O)ccc2[C@H]2CC[C@]3(C)[C@@H](O)CC[C@H]3[C@H]12 [ICI]
TGFβ-3 promoter [1]; 10^-5 M
  CAT activity: 6.5
TGFβ-3 promoter [1]; 10^-6 M
  CAT activity: 15.2
TGFβ-3 promoter [1]; 10^-7 M
  CAT activity: 10.9
TGFβ-3 promoter [1]; 10^-8 M
  CAT activity: 0.88
TGFβ-3 promoter [1]; 10^-9 M
  CAT activity: 0.89
TGFβ-3 promoter [1]; Homo sapiens, MG-63, 24 h, read-out: ED50
  EC50: 100 nM
TGFβ-3 promoter [1]; MG63 cells
  TGFβ-3 promoter activation (in words): much less active at high concentrations (10^-5 M)

## O=C(c1ccc(O)cc1)c1sc2ccccc2c1-c1ccccc1 [LY81099, p-hydroxyphenyl 3-phenylbenzo[B]thien-2-yl ketone]
TGFβ-3 promoter [2]; 10^-5 M
  reporter gene expression: 2.3
TGFβ-3 promoter [2]; 10^-6 M
  reporter gene expression: 0.9
TGFβ-3 promoter [2]; 10^-7 M
  reporter gene expression: 0.7
TGFβ-3 promoter [2]; 10^-8 M
  reporter gene expression: 0.5
TGFβ-3 promoter [2]; 10^-9 M
  reporter gene expression: 0.6
Uterotropic activity
  in vivo uterotropic activity (in words): uterotropic

## TGFβ
[5]
  cell division (in words): repressed division
[6]
  mitogenic effect (in words): mitogenic
[7]
  bone formation / osteoclast effects (in words): stimulate osteoblastic bone formation and to inhibit osteoclast formation and osteoclast activities
[8]
  cell growth, biosynthesis and chemotaxis (in words): inhibits the growth of mesenchymal cells and epithelial cells; also recorded: induces biosynthesis of proteoglycans, fibronectins and plasminogen activator; also recorded: chemotactic for fibroblasts, macrophages and smooth muscle cells

## O=C(c1ccc(OCCN2CCCC2)cc1)c1c(-c2ccc(O)cc2)sc2ccccc12 [LY113526, 2-(p-hydroxyphenyl)benzo[B]thien-3-YL p-[2-(1-pyrrolidinyl)ethoxy]phenyl ketone]
TGFβ-3 promoter [2]; 10^-5 M
  reporter gene expression: 2.1
TGFβ-3 promoter [2]; 10^-6 M
  reporter gene expression: 2.0
TGFβ-3 promoter [2]; 10^-7 M
  reporter gene expression: 0.6
TGFβ-3 promoter [2]; 10^-8 M
  reporter gene expression: 0.7
TGFβ-3 promoter [2]; 10^-9 M
  reporter gene expression: 0.7
Uterotropic activity
  in vivo uterotropic activity (in words): anti-uterotropic

## CC/C(=C(\c1ccccc1)c1ccc(OCCN(C)C)cc1)c1ccccc1 [tamoxifen]
TGFβ-3 promoter [1]; 10^-5 M
  CAT activity: 13.5
TGFβ-3 promoter [1]; 10^-6 M
  CAT activity: 2.9
TGFβ-3 promoter [1]; 10^-7 M
  CAT activity: 0.98
TGFβ-3 promoter [1]; 10^-8 M
  CAT activity: 1.2
TGFβ-3 promoter [1]; 10^-9 M
  CAT activity: 0.91
TGFβ-3 promoter [1]; MG63 cells
  TGFβ-3 promoter activation (in words): activates the TGFβ-3 promoter only at high levels (i.e., greater than micromolar)
[9]
  TGFβ secretion (in words): induce human fetal fibroblasts to secrete TGFβ
TGFβ-1
  induction of extracellular TGFβ-1 (in words): correlated with induction of extracellular TGFβ-1
TGFβ-2 mRNA
  TGFβ-2 mRNA expression (in words): did not exhibit the same effect
[10]
  bone density (in words): appear to be restricted to the lumbar spine, with bone loss being reported in the radius in some breast cancer patients
[10]; listed as Tamoxifen
  bone density (in words): increase bone density in breast cancer patients
[10]; healthy women and women with breast cancer
  serum cholesterol (in words): reduce the growth the serum cholesterol
[10]; human, in vivo
  growth of breast tumors (in words): reduce the growth of breast tumors
  serum concentration of LDLs (in words): reduce serum concentration of LDLs
[10]; post-menopausal women
  weight gain (in words): contribute to weight gain
TGFβ-1 promoter; [12]
  fold induction at 0.1 µM: 1.1
TGFβ-1 promoter; TGFβ-1 promoter, 10 μl of 10^-4 M in 10 ml medium, 24 h, control […]
  Act. (relative CAT activity): 6.9
TGFβ-2 promoter; [12]
  fold induction at 0.1 µM: 2.6
TGFβ-2 promoter; TGFβ-2 promoter, 10 μl of 10^-4 M in 10 ml medium, 24 h, control 0.8
  Act. (relative CAT activity): 2.0
TGFβ-3 promoter [11]; [12]
  fold induction at 0.1 µM: 2.6
TGFβ-3 promoter [11]; TGFβ-3 promoter, 10 μl of 10^-4 M in 10 ml medium, 24 h, control 0.7
  Act. (relative CAT activity): 1.9

## O=C(c1ccc(OCCN2CCCCCC2)cc1)c1c(-c2ccc(O)cc2)sc2cc(O)ccc12 [LY139482, [4-[2-(hexahydro-1H-azepin-1-yl)ethoxy]phenyl][6-hydroxy-2-(4-hydroxyphenyl)benzo[B]thien-3-yl]methanone]
TGFβ-3 promoter [2]; 10^-5 M
  reporter gene expression: 2.0
TGFβ-3 promoter [2]; 10^-6 M
  reporter gene expression: 2.5
TGFβ-3 promoter [2]; 10^-7 M
  reporter gene expression: 2.7
TGFβ-3 promoter [2]; 10^-8 M
  reporter gene expression: 2.5
TGFβ-3 promoter [2]; 10^-9 M
  reporter gene expression: 0.8
Uterotropic activity
  in vivo uterotropic activity (in words): anti-uterotropic

## CN(C)CCOc1ccc(/C(=C(/CCCl)c2ccccc2)c2ccccc2)cc1 [toremifene]
[9]
  TGFβ secretion (in words): induce human fetal fibroblasts to secrete TGFβ

## COc1ccc(C2=C(C(=O)c3ccc(OCCN4CCCC4)cc3)c3ccccc3CC2)cc1 [LY133314, [3,4-dihydro-2-(4-methoxyphenyl)-1-naphthanlenyl][4-[2-(1-pyrrolidinyl)ethoxy]phenyl]methanone, methanesulfonic acid salt]
TGFβ-3 promoter [2]; 10^-5 M
  reporter gene expression: 1.0
TGFβ-3 promoter [2]; 10^-6 M
  reporter gene expression: 6.6
TGFβ-3 promoter [2]; 10^-7 M
  reporter gene expression: 3.1
TGFβ-3 promoter [2]; 10^-8 M
  reporter gene expression: 0.7
TGFβ-3 promoter [2]; 10^-9 M
  reporter gene expression: 0.7
Uterotropic activity
  in vivo uterotropic activity (in words): uterotropic

— patent US5445941A, “Method for screening anti-osteoporosis agents” (Eli Lilly and Company, priority 1993, dated 1995)
